The values below come from patent US20040259861A1, “Medicament inhibiting sodium/calcium exchange system” (priority 2001, published 2004).

For this experiment, the target named is T1, sodium/calcium exchanger (Rattus norvegicus, UniProt Q01728).
T1 construct: The heart of the rat was excised and perfused with Krebs buffer solution; from tissue; host or cells: isolated Langendorff-perfused rat heart
The experiment in a line: Langendorff-perfused rat heart, monensin treatment plus ischemia/reperfusion: ventricular total calcium content and recovery in contractile tension. The note with it: for Calcium Content: isolated rat heart, monensin 5 μM 10 min, ischemia 15 min, reperfusion 30 min; for effect on decreased recovery in contractile tension (in words) / effect on increased ventricular calcium content (in words): monensin treatment and ischemia/reperfusion, rat heart. How it is done: The heart of the rat was excised and perfused with Krebs buffer solution (in mM: NaCl 119, KCl 4.6, MgSO4.7H2O 1.2, CaCl2.2H2O 1.3, NaHCO3 25, KH2PO4 1.2, glucose 11; pH 7.4, 37° C.) according to Langendorff method. A thread attached to the apex of the heart was connected to a tension transducer to determine contractile tension. The heart was perfused with a perfusion solution containing monensin (5 μ M; sodium ionophore) for 10 min and then ischemia was induced by a cessation of coronary flow (for 15 min). After reperfusion for 30 min, the heart was liquefied in nitric acid, and ventricular total calcium content was determined by atomic absorption analysis. Contractile tension was measured during the experiment, and recovery in contractile tension at 30 min of reperfusion related to its pre-value was used as an index of cardiac contraction.

In the case of `N=C(N)NC(=O)c1nc(Cl)c(N)nc1N` [Amiloride], the “effect on decreased recovery in contractile tension (in words)” value (shortened to “effect on decreased recovery”) is given as “failed to exhibit these effects” and the “effect on increased ventricular calcium content (in words)” value was “failed to exhibit these effects”. In addition, under “10^−3 M”, the “Calcium Content” value was 4.26 ± 0.40 µmol/g. In addition, for the setting “10^−4 M”, the “Calcium Content” value was determined as 5.30 ± 0.25 µmol/g.

`Cc1ccc(N2CCNCC2)c(S(=O)(=O)O)c1.O` [Compound of the Present Invention, 5-methyl-2-(1-piperazinyl)benzenesulfonic acid monohydrate]: the “effect on decreased recovery” value is “improved”. Also, the “Calcium Content” value (10^−6 M) turned out to be 2.72 ± 0.18 µmol/g. In addition, the “Calcium Content” value (10^−7 M) amounted to 3.72 ± 0.16 µmol/g. The “effect on increased ventricular calcium content (in words)” value (listed as The medicament of the present invention, monohydrate) is on record as “improved”. Moreover, the “effect on increased ventricular calcium content (in words)” value (listed as the medicament of the present invention, monohydrate) is listed as “effective in reducing increase in ventricular calcium content”.

As for `COc1ccc([C@@H]2Sc3ccccc3N(CCN(C)C)C(=O)[C@@H]2OC(C)=O)cc1` [Diltiazem], the “effect on decreased recovery” value was “failed to exhibit these effects” and the “effect on increased ventricular calcium content (in words)” value is “failed to exhibit these effects”. For the same compound, the “Calcium Content” value (10^−5 M) stood at 5.89 ± 0.22 µmol/g. Besides, the “Calcium Content” value (10^−6 M) is 5.75 ± 0.16 µmol/g.
